Results taken from patent US9637485B2, “6,7-dihydrobenzo[a]quinolizin-2-one derivatives for the treatment and prophylaxis of hepatitis B virus infection” (Hoffmann-La Roche Inc., priority 2014, dated 2017).

Each molecule was assayed on HBsAg (assay: HBsAg assay (CLIA of secreted HBsAg in HepG2.2.15 culture supernatant)). Conditions: Hepatitis B virus, HepG2.2.15, read-out: IC50 (HBsAg secretion reduced by 50% compared to the no drug control), HepG2.2.15 cells, culture supernatant, HBsAg CLIA.
Format: cell-based, HBV
Description: HepG2.2.15 cells (Acs et al. Proc Natl Acad Sci USA, 84, (1987), 4641-4), a constitutively HBV-expressing cell line were cultured in DMEM+Glutamax-I medium (Invitrogen, Carlsbad, Calif., USA, Catalog number: 11320082), supplemented with 10% fetal bovine serum (Invitrogen, Catalog number: 10099141) and G418 (Invitrogen, Catalog number: 10131027) at a final concentration of 200 mg/L and maintained in 5% CO2 at 37° C.
HepG2.2.15 cells were seeded in duplicate into white, 96-well plates at 1.5×10^4 cells/well. The cells were treated with a three-fold serial dilution series of the compounds in DMSO. The final DMSO concentration in all wells was 1% and DMSO was used as no drug control.
The HBsAg chemiluminescence immunoassay (CLIA) kit (Autobio Diagnostics Co., Zhengzhou, China, Catalog number: CL0310-2) was used to measure the levels of secreted HBV antigens semi-quantitatively. For the detection 50 μL/well culture supernatant was used and HBsAg was quantified using HBsAg chemiluminescence immunoassay (CLIA) kit (Autobio Diagnostics Co., Zhengzhou, China, Catalog number: CL0310-2), 50 μl of the supernatant was transferred to the CLIA assay plate and 50 μL of enzyme conjugate reagent was added into each well. The plates were sealed and gently agitated for 1 hour at room temperature. The supernatant-enzyme-mixture was discarded and wells were washed 6 times with 300 μL of PBS. The residual liquid was removed by plating the CLIA plate right side down on absorbent tissue paper. 25 μL of substrates A and B were added to each well. Luminance was measured using a luminometer (Mithras LB 940 Multimode Microplate Reader) after 10 minutes incubation. Dose-response curves were generated and the IC50 value was extrapolated by using the E-WorkBook Suite (ID Business Solutions Ltd., Guildford, UK). The IC50 was defined as the compound concentration (or conditioned media log dilution) at which HBsAg secretion was reduced by 50% compared to the no drug control.

Q: Which IC50 does the source give for COCCCOc1cc2c(cc1OC)-c1cc(=O)c(C(=O)O)cn1C(C(C)(C)CO)C2 (racemic) [Example 24, 6-(2-Hydroxy-1,1-dimethyl-ethyl)-10-methoxy-9-(3-methoxypropoxy)-2-oxo-6,7-dihydrobenzo[a]quinolizine-3-carboxylic acid] here?
A: Its IC50 is 5 nM.

Q: Which IC50 does the source give for COCCCOc1cc2c(cc1OC)-c1cc(=O)c(C(=O)O)cn1C(C(C)(C)COC)C2 (racemic) [Example 27, 10-Methoxy-6-(2-methoxy-1,1-dimethyl-ethyl)-9-(3-methoxypropoxy)-2-oxo-6,7-dihydrobenzo[a]quinolizine-3-carboxylic acid] here?
A: The IC50 was 5 nM.

Q: With COCCCOc1cc2c(cc1Cl)-c1cc(=O)c(C(=O)O)cn1C(C(C)(C)COC)C2 (racemic) [Example 30, 10-Chloro-6-(2-methoxy-1,1-dimethyl-ethyl)-9-(3-methoxypropoxy)-2-oxo-6,7-dihydrobenzo[a]quinolizine-3-carboxylic acid] as the molecule, how does the IC50 read?
A: Its IC50 is 4 nM.

Q: COCC(C)(C)C1Cc2cc(OCc3ccccc3)c(OC)cc2-c2cc(=O)c(C(=O)O)cn21 (stereo not drawn) [Example 1, 9-Benzyloxy-10-methoxy-6-(2-methoxy-1,1-dimethyl-ethyl)-2-oxo-6,7-dihydrobenzo[a]quinolizine-3-carboxylic acid] was tested. Which IC50 did it give?
A: Its IC50 is 7 nM.

Q: For COCC(C)(C)C1Cc2cc(OC)c(OC)cc2-c2cc(=O)c(C(=O)O)cn21 (stereo not drawn) [Example 2, 9,10-Dimethoxy-6-(2-methoxy-1,1-dimethyl-ethyl)-2-oxo-6,7-dihydrobenzo[a]quinolizine-3-carboxylic acid], which IC50 is on record?
A: The IC50 was 34 nM.

Q: With COCC(C)(C)C1Cc2cc(OCC(F)(F)F)c(OC)cc2-c2cc(=O)c(C(=O)O)cn21 (stereo not drawn) [Example 3, 10-Methoxy-6-(2-methoxy-1,1-dimethyl-ethyl)-2-oxo-9-(2,2,2-trifluoroethoxy)-6,7-dihydrobenzo[a]quinolizine-3-carboxylic acid] as the molecule, how does the IC50 read?
A: Its IC50 is 9 nM.

Same assay, conditions: read-out: IC50 (HBsAg secretion reduced by 50% compared to the no drug control); HepG2.2.15 cells, culture supernatant, HBsAg CLIA

Q: For COCCCOc1cc2c(cc1OC)-c1cc(=O)c(C(=O)O)cn1[C@H](C(C)(C)O)C2 (single isomer, unassigned) [Example 21, (+)-6-(1-Hydroxy-1-methyl-ethyl)-10-methoxy-9-(3-methoxypropoxy)-2-oxo-6,7-dihydrobenzo[a]quinolizine-3-carboxylic acid], which IC50 is on record?
A: Its IC50 is 41 nM.

Q: For COCCCOc1cc2c(cc1OC)-c1cc(=O)c(C(=O)O)cn1C(C(C)(C)O)C2 (single isomer, unassigned) [Example 22, (−)-6-(1-hydroxy-1-methyl-ethyl)-10-methoxy-9-(3-methoxypropoxy)-2-oxo-6,7-dihydrobenzo[a]quinolizine-3-carboxylic acid], which IC50 is on record?
A: Its IC50 is 4020 nM.

Q: For COCCCOc1cc2c(cc1OC)-c1cc(=O)c(C(=O)O)cn1C(C(C)(C)CO)C2 (single isomer, unassigned) [Example 26, (−)-6-(2-hydroxy-1,1-dimethyl-ethyl)-10-methoxy-9-(3-methoxypropoxy)-2-oxo-6,7-dihydrobenzo[a]quinolizine-3-carboxylic acid], which IC50 is on record?
A: The IC50 was 84 nM.

Q: With COCCCOc1cc2c(cc1OC)-c1cc(=O)c(C(=O)O)cn1[C@H](C(C)(C)COC)C2 (single isomer, unassigned) [Example 29, (−)-10-methoxy-6-(2-methoxy-1,1-dimethyl-ethyl)-9-(3-methoxypropoxy)-2-oxo-6,7-dihydrobenzo[a]quinolizine-3-carboxylic acid] as the molecule, how does the IC50 read?
A: The IC50 was 396 nM.

Q: With COCCCOc1cc2c(cc1Cl)-c1cc(=O)c(C(=O)O)cn1C(C(C)(C)COC)C2 (single isomer, unassigned) [Example 31, (+)-10-Chloro-6-(2-methoxy-1,1-dimethyl-ethyl)-9-(3-methoxypropoxy)-2-oxo-6,7-dihydrobenzo[a]quinolizine-3-carboxylic acid] as the molecule, how does the IC50 read?
A: The IC50 was 3 nM.

Q: How did the IC50 turn out when COCCCOc1cc2c(cc1Cl)-c1cc(=O)c(C(=O)O)cn1C(C(C)(C)COC)C2 (single isomer, unassigned) [Example 32, (−)-10-chloro-6-(2-methoxy-1,1-dimethyl-ethyl)-9-(3-methoxypropoxy)-2-oxo-6,7-dihydrobenzo[a]quinolizine-3-carboxylic acid] was run?
A: The IC50 was 8270 nM.
